Experimental data: ChEMBL document CHEMBL4765362, “Thirty Years of HDAC Inhibitors: 2020 Insight and Hindsight” (J Med Chem, 2020)

Assays:
[1] = target: Histone deacetylase 1 (Homo sapiens, UniProt Q13547); assay: Inhibition of HDAC1 (unknown origin) using carboxyfluorescein (FAM)-labeled acetylated peptide substrate preincubated for 3 hrs by microfluidic capillary electrophoresis
[2] = target: T1, Histone deacetylase 2 (Homo sapiens, UniProt Q92769); assay: Inhibition of human HDAC2 expressed in Sf9 cells using carboxyfluorescein (FAM)-labeled acetylated peptide substrate preincubated for 3 hrs by microfluidic capillary electrophoresis
T1 sequence (Q92769 whole entry): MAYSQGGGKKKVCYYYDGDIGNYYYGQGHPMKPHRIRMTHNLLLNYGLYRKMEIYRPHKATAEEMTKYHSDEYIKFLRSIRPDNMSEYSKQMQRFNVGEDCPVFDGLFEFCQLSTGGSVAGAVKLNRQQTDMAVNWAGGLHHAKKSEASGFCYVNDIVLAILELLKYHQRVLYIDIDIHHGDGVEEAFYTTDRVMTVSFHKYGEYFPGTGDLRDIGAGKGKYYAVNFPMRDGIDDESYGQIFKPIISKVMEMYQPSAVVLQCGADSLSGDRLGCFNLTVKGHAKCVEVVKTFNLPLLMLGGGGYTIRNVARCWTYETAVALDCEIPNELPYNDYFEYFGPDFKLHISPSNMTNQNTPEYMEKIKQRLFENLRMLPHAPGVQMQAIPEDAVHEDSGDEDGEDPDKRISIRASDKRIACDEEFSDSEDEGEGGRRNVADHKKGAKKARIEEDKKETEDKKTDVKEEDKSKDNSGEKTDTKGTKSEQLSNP

[3] = target: Histone deacetylase 4 (Homo sapiens, UniProt P56524); assay: Inhibition of human HDAC4 expressed in baculovirus infected sf9 cells using carboxyfluorescein (FAM)-labeled acetylated peptide substrate by microfluidic capillary electrophoresis
Sequence of Histone deacetylase 4 (P56524 whole entry): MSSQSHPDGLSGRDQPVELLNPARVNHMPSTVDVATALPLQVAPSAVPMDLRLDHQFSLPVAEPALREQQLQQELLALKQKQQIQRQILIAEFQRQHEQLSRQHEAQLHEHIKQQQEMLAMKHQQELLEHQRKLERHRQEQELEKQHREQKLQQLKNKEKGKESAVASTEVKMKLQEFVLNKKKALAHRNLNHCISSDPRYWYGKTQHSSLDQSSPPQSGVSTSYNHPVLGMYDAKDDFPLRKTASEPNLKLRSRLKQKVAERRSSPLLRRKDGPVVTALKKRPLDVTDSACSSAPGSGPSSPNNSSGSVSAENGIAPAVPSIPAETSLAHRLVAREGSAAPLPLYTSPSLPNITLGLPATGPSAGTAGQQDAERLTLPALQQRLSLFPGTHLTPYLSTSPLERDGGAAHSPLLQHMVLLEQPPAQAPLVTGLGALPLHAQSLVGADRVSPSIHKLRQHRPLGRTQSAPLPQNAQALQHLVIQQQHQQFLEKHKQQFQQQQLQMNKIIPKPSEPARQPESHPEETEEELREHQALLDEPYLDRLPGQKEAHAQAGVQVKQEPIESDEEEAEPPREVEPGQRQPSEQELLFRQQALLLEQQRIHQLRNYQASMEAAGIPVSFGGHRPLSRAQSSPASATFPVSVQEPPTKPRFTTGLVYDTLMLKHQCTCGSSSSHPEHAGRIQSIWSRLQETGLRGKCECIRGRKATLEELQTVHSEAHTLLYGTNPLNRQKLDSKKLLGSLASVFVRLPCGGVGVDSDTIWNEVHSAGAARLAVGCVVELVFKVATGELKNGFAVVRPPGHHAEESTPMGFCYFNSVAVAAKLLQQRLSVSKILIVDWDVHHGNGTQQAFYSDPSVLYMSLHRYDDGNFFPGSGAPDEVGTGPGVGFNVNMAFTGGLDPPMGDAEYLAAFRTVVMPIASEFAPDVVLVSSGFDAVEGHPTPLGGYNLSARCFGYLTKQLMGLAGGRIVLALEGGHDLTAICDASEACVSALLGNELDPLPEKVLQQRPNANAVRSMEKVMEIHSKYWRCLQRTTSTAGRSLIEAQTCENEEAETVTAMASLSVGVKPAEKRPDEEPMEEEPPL

[4] = target: T2, Histone deacetylase 5 (Homo sapiens, UniProt Q9UQL6); assay: Inhibition of human HDAC5 using carboxyfluorescein (FAM)-labeled acetylated peptide substrate by microfluidic capillary electrophoresis
T2 sequence (Q9UQL6 whole entry): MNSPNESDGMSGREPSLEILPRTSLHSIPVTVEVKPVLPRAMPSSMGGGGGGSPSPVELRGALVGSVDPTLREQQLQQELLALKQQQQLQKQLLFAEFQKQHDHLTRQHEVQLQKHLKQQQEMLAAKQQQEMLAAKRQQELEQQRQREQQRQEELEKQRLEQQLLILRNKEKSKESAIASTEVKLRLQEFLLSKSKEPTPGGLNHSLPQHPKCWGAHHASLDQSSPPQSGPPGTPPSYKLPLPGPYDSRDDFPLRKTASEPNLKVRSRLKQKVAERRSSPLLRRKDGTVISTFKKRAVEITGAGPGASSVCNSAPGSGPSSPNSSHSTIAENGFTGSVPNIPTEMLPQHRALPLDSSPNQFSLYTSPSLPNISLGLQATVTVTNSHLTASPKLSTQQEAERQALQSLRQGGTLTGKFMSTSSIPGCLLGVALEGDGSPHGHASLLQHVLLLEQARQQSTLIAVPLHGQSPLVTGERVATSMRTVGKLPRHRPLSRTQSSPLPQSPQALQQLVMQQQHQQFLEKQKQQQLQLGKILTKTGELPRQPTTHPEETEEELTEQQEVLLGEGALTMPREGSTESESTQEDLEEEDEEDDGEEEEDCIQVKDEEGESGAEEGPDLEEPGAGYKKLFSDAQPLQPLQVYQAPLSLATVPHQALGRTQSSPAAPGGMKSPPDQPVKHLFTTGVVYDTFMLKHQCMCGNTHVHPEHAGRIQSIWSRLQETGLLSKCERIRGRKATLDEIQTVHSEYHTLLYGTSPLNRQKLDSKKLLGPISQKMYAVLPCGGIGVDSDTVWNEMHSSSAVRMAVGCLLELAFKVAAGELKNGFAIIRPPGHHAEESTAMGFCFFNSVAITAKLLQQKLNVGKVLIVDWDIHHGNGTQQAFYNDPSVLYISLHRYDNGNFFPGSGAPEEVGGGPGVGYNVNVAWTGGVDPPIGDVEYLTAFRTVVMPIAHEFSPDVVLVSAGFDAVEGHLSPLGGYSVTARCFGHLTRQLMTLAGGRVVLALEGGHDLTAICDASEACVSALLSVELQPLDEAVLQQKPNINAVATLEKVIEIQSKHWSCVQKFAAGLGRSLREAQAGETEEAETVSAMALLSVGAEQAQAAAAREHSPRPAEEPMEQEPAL

[5] = target: T3, Protein deacetylase HDAC6 (Homo sapiens, UniProt Q9UBN7); assay: Inhibition of HDAC6 (unknown origin) using carboxyfluorescein (FAM)-labeled acetylated peptide substrate by microfluidic capillary electrophoresis
T3 sequence (Q9UBN7 whole entry): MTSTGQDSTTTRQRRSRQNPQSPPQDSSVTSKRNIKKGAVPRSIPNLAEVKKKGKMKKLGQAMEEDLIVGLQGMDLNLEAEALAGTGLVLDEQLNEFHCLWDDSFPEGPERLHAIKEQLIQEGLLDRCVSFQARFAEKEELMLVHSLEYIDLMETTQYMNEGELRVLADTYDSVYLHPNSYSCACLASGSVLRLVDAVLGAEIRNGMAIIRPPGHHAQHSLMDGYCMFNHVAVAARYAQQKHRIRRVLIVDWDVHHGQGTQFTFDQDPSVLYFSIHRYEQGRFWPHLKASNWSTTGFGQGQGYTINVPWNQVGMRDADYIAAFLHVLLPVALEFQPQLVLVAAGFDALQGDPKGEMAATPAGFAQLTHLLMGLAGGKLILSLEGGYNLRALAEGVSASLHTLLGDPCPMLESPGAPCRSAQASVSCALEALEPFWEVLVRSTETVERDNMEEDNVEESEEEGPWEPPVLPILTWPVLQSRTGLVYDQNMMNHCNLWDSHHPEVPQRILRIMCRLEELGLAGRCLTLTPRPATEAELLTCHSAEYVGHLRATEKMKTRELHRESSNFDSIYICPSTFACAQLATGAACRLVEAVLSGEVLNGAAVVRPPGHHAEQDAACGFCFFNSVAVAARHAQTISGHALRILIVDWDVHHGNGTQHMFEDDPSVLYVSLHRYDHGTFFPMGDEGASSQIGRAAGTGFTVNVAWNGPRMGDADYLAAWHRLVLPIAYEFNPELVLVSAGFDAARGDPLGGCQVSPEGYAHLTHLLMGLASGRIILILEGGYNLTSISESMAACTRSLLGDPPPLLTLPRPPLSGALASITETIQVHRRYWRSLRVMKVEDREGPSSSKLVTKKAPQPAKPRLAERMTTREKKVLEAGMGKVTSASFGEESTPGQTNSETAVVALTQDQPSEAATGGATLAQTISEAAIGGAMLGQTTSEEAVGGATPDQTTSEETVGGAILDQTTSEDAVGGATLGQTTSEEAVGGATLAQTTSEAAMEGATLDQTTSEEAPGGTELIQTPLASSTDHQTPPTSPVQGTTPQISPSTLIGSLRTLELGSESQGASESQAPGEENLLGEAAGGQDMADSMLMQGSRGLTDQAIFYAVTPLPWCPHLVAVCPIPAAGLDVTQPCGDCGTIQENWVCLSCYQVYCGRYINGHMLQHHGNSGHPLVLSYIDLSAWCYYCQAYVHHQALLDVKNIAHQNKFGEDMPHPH

[6] = target: T4, Histone deacetylase 7 (Homo sapiens, UniProt Q8WUI4); assay: Inhibition of human N-terminal GST-tagged HDAC7 (518 to end residues) expressed in baculovirus infected sf9 cells using carboxyfluorescein (FAM)-labeled acetylated peptide substrate by microfluidic capillary electrophoresis
T4 sequence (Q8WUI4 whole entry): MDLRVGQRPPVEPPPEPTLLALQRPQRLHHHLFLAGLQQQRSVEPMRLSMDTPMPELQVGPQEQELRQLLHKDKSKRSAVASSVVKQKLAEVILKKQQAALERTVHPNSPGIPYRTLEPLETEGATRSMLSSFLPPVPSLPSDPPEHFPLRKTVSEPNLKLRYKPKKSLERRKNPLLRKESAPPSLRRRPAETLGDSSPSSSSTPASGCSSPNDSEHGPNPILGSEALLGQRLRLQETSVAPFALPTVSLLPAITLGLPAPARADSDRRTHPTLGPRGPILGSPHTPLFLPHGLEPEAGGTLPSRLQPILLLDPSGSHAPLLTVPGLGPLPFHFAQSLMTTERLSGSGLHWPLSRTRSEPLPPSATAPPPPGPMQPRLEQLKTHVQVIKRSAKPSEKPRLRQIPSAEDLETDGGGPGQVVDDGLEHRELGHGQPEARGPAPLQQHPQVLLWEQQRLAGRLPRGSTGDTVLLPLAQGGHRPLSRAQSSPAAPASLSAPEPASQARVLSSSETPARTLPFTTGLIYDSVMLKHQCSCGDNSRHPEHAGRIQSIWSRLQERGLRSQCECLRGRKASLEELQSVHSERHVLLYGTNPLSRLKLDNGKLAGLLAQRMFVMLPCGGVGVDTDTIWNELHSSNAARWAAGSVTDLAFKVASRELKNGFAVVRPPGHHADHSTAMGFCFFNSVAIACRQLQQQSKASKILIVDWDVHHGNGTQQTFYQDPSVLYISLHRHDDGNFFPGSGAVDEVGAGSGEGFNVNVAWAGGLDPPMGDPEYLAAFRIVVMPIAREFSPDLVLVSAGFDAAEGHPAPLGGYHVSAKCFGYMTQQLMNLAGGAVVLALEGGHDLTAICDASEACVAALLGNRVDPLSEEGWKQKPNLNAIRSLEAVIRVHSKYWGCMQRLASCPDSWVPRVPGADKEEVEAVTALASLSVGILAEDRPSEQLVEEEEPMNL

[7] = target: T5, Histone deacetylase 8 (Homo sapiens, UniProt Q9BY41); assay: Inhibition of recombinant human C-terminal His-tagged HDAC8 expressed in baculovirus infected sf9 cells using carboxyfluorescein (FAM)-labeled acetylated peptide substrate by microfluidic capillary electrophoresis
T5 sequence (Q9BY41 whole entry): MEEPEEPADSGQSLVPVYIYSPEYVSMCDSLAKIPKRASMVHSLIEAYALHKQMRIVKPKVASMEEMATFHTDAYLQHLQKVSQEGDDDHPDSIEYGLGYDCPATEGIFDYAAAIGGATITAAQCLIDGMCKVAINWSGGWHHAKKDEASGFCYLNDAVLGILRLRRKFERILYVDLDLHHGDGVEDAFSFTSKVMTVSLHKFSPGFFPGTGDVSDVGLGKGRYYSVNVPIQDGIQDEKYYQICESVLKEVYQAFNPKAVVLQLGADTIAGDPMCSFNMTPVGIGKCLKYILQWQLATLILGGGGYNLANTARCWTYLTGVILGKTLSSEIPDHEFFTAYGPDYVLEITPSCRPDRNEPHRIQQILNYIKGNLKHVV

[8] = target: T6, Histone deacetylase 9 (Homo sapiens, UniProt Q9UKV0); assay: Inhibition of C-terminal His-tagged human HDAC9 (604 to 1066 residues) expressed in baculovirus infected sf9 cells using carboxyfluorescein (FAM)-labeled acetylated peptide substrate by microfluidic capillary electrophoresis
T6 sequence (Q9UKV0 whole entry, the tested form may be a part): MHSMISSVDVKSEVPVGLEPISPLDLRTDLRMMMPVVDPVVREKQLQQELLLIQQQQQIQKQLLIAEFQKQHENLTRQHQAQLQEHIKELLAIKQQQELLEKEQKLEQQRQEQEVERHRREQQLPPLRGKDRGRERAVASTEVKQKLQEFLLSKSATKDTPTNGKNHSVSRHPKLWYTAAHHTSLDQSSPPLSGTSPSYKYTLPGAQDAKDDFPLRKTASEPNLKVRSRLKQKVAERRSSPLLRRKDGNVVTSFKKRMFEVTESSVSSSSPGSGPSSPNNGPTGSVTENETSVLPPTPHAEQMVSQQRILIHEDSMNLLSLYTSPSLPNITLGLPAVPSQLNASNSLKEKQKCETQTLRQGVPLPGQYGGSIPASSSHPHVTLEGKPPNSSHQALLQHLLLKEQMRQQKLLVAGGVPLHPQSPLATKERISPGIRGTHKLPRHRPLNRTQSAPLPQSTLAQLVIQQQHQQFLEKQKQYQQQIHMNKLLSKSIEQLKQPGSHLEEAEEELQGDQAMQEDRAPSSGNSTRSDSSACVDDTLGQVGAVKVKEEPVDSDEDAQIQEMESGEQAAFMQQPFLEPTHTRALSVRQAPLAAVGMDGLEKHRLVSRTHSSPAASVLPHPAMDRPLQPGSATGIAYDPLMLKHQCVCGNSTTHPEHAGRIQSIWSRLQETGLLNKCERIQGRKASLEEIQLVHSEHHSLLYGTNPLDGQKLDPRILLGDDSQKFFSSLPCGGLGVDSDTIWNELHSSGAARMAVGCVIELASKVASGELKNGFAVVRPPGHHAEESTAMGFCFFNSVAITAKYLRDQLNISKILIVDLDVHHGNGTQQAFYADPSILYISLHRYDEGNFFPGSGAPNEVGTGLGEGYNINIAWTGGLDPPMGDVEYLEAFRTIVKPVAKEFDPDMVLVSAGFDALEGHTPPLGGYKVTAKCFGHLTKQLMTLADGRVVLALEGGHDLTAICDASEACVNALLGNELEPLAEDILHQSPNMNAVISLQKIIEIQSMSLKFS

[9] = target: Histone deacetylase 3/Nuclear receptor corepressor 2 (HDAC3/NCoR2) (Homo sapiens, UniProt O15379); assay: Inhibition of human full length recombinant HDAC3/ NcoR2 using p53 (379 to 382 residues) (RHKK(Ac)AMC) as substrate preincubated for 5 to 10 mins followed by substrate addition and measured after 2 hrs by fluorescence method; type: protein-complex assay
[10] = target: T5, Histone deacetylase 8; assay: Inhibition of human full length recombinant HDAC8 using p53 (379 to 382 residues) (RHK(Ac)K(Ac)AMC as substrate preincubated for 5 to 10 mins followed by substrate addition and measured after 2 hrs by fluorescence method
[11] = target: T2, Histone deacetylase 5; assay: Inhibition of human full length recombinant HDAC5 using p53 (379 to 382 residues) Ac-LGK(TFA)-AMC as substrate preincubated for 5 to 10 mins followed by substrate addition and measured after 2 hrs by fluorescence method
[12] = target: T4, Histone deacetylase 7; assay: Inhibition of human full length recombinant HDAC7 using p53 (379 to 382 residues) Ac-LGK(TFA)-AMC as substrate preincubated for 5 to 10 mins followed by substrate addition and measured after 2 hrs by fluorescence method
[13] = target: T6, Histone deacetylase 9; assay: Inhibition of human full length recombinant HDAC9 using p53 (379 to 382 residues) Ac-LGK(TFA)-AMC as substrate preincubated for 5 to 10 mins followed by substrate addition and measured after 2 hrs by fluorescence method
[14] = target: T7, Polyamine deacetylase HDAC10 (Homo sapiens, UniProt Q969S8); assay: Inhibition of human full length recombinant HDAC10 using p53 (379 to 382 residues) (RHKK(Ac)AMC) as substrate preincubated for 5 to 10 mins followed by substrate addition and measured after 2 hrs by fluorescence method
T7 sequence (Q969S8 whole entry): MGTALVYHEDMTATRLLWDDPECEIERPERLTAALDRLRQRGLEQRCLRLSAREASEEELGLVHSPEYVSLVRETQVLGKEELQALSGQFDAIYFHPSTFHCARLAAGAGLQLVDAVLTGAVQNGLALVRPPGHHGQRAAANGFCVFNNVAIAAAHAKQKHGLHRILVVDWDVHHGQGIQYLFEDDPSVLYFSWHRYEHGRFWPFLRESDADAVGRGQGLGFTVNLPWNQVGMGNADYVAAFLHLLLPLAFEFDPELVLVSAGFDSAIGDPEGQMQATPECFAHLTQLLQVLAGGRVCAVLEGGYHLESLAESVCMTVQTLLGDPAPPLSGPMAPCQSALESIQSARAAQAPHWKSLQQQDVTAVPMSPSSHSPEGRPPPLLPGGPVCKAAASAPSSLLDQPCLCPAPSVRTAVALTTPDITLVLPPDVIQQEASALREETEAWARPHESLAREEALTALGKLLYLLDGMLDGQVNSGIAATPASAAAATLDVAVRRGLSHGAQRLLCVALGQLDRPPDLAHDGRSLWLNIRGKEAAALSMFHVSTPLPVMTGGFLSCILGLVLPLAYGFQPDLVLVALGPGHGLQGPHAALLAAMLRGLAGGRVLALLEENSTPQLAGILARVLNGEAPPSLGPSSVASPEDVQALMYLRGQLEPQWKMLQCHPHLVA

[15] = target: T8, Histone deacetylase 11 (Homo sapiens, UniProt Q96DB2); assay: Inhibition of human full length recombinant HDAC11 using p53 (379 to 382 residues) (RHKK(Ac)AMC) as substrate preincubated for 5 to 10 mins followed by substrate addition and measured after 2 hrs by fluorescence method
T8 sequence (Q96DB2 whole entry): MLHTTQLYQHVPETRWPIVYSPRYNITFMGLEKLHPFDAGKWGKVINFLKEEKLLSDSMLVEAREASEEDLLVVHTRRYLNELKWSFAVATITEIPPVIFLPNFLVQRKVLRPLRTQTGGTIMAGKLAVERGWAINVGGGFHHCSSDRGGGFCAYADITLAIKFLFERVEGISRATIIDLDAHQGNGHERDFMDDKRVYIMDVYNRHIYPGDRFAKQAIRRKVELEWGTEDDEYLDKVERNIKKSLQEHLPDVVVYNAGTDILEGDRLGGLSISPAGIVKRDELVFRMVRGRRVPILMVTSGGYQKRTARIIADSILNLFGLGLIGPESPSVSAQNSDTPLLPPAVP

[16] = target: T1, Histone deacetylase 2
[17] = species: Homo sapiens; assay: Selectivity ratio of IC50 for human C-terminal His-tagged HDAC3 (1 to 428 residues)/human N-terminal GST-tagged NcoR2 (395 to 489 residues) expressed in sf9 cells to IC50 for HDAC6 (unknown origin)
[18] = species: Homo sapiens; assay: Selectivity ratio of IC50 for HDAC1 (unknown origin) to IC50 for HDAC6 (unknown origin)
[19] = species: Homo sapiens; assay: Selectivity ratio of IC50 for human HDAC2 expressed in Sf9 cells to IC50 for HDAC6 (unknown origin)
[20] = target: T3, Protein deacetylase HDAC6; assay: Inhibition of HDAC6 (unknown origin) using acetyl-lysine tripeptide substrate as substrate preincubated for 24 hrs followed substrate addition and shaken for 5 secs and measured over 30 mins
[21] = species: Homo sapiens; assay: Selectivity ratio of IC50 for human HDAC4 expressed in Sf9 cells to IC50 for HDAC6 (unknown origin)
[22] = species: Homo sapiens; assay: Selectivity ratio of IC50 for human HDAC5 to IC50 for HDAC6 (unknown origin)
[23] = species: Homo sapiens; assay: Selectivity ratio of IC50 for human N-terminal GST-tagged HDAC7 (518 to end residues) expressed in baculovirus infected sf9 cells to IC50 for HDAC6 (unknown origin)
[24] = species: Homo sapiens; assay: Selectivity ratio of IC50 for C-terminal His-tagged human HDAC9 (604 to 1066 residues) expressed in baculovirus infected sf9 cells to IC50 for HDAC6 (unknown origin)
[25] = species: Homo sapiens; assay: Selectivity ratio of IC50 for recombinant human C-terminal His-tagged HDAC8 expressed in baculovirus infected sf9 cells to IC50 for HDAC6 (unknown origin)

Sequence of Histone deacetylase 1 (Q13547 whole entry): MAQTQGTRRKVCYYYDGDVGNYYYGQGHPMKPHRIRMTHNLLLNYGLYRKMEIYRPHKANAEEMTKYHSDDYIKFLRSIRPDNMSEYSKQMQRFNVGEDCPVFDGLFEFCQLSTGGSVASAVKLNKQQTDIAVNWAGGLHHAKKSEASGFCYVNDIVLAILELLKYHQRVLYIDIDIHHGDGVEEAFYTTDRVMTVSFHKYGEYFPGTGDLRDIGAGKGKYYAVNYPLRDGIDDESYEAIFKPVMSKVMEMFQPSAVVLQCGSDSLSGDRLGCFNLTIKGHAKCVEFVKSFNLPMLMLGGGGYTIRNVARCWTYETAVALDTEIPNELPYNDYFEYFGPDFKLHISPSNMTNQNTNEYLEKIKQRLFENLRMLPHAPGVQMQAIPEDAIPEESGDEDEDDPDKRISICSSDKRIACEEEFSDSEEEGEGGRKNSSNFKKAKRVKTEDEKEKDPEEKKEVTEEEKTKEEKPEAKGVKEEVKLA

Work on CC(=O)Nc1ccc(C(=O)Nc2ccc(F)cc2N)cc1 yielded an IC50 [1] of 1000 nM, an IC50 [2] of 1000 nM and an IC50 [3] greater than 30 µM. For the same compound, the IC50 [4] was greater than 30 µM, the IC50 [5] was greater than 30 µM and the IC50 [6] was greater than 30 µM. For the same compound, the IC50 [7] was greater than 30 µM and the IC50 [8] was greater than 30 µM.
For O=C(NO)c1ccc(CN2CCCc3cc(Cl)ccc32)cc1, the IC50 [9] was 30 µM, the IC50 [10] was 4 µM and the IC50 [11] was 4 µM. The IC50 [12] was 5 µM, the IC50 [13] was 4 µM and the IC50 [14] was 26 µM. The IC50 [15] was 6 µM and the IC50 [16] was 33 µM.
Work on O=C(NO)c1cnc(C2(c3ccccc3)CCC(F)(F)CC2)nc1 yielded a Ratio IC50 [17] greater than 250, a Ratio IC50 [18] greater than 250 and a Ratio IC50 [19] greater than 250. For the same compound, the IC50 [20] was 3 nM, the Ratio IC50 [21] was greater than 250 and the Ratio IC50 [22] was greater than 250. For the same compound, the Ratio IC50 [23] was greater than 250, the Ratio IC50 [24] was greater than 250 and the Ratio IC50 [25] was greater than 250.
